Literature values in patent US9222055B2, “High intensity fragrances” (TAKASAGO INTERNATIONAL CORPORATION, priority 2009, dated 2015).
Where two headings read alike, the source gives them in different places.

Legend:
[1] = for Readily biodegradable: Table 1
[2] = Table 1, measured value where available
[3] = evidence from prior art
[4] = Table 19, ingredients of Comparative Fragrance K
[5] = Table 18, ingredients of Comparative Fragrance J

For `CC1=CCC(O)(C(C)C)CC1` (stereo not shown) [1-terpinen-4-ol], the Readily biodegradable [1] is listed as “No” and the LogP [2] is listed as 3.26.

For `CC(C)CC1CC(C)(O)CCO1` (stereo not shown) [2-isobutyl-4-methyltetrahydro-2H-pyran-4-ol], the Bio-Degradable [1, 4] is given as “No”.

For `C=CCOC(=O)CCCCC` [ALLYL HEXANOATE, allyl hexanoate], the Readily biodegradable [1] is listed as “Yes”.

In the case of `COc1ccc(C=O)cc1` [ANISIC ALDEHYDE, anisic aldehyde], the Readily biodegradable [1] is listed as “Yes”.

In the case of `CC(=O)/C=C/C1C(C)=CCCC1(C)C` (stereo not drawn) [Alpha ionone], the Bio-Degradable [1, 4] is given as “No”.

In the case of `CCCCC/C(C=O)=C/c1ccccc1` [Amyl cinnamic aldehyde], the allergen classification [3] is listed as “strong allergens”.

For `CC(=O)OCc1ccccc1` [BENZYL ACETATE, benzyl acetate], the biodegradability classification ([1]; OECD 301B or OECD 301F, Test Plan for Benzyl Derivatives) is given as “readily biodegradable”, the Readily biodegradable [1] is given as “Yes” and the Bio-Degradable [1, 4] is given as “Yes”.

In the case of `OCc1ccccc1` [BENZYL ALCOHOL, benzyl alcohol], the Readily biodegradable [1] is given as “Yes”.

In the case of `CCCCOC(C)=O` [BUTYL ACETATE, butyl acetate], the Readily biodegradable [1] is given as “Yes” and the LogP [2] is given as 1.78.

In the case of `O=C(OCc1ccccc1)c1ccccc1O` [Benzyl Salicylate], the Bio-Degradable [1, 5] is listed as “No”.

For `OC/C=C/c1ccccc1` [CINNAMIC ALCOHOL, cinnamic alcohol], the Readily biodegradable [1] is given as “Yes”, the allergen classification [3] is given as “strong allergens” and the LogP [2] is given as 1.95.

For `O=C/C=C/c1ccccc1` [CINNAMIC ALDEHYDE, cinnamic aldehyde], the Readily biodegradable [1] is listed as “Yes” and the allergen classification [3] is listed as “strong allergens”.

In the case of `CC/C=C\CCOC(C)=O` [CIS-3-HEXENYL ACETATE, cis-3-hexenyl acetate], the Readily biodegradable [1] is listed as “Yes” and the LogP [2] is listed as 2.34.

In the case of `CC/C=C\CCOC(=O)CC` [CIS-3-HEXENYL PROPIONATE, cis-3-hexenyl propionate], the Readily biodegradable [1] is given as “Yes”.

For `CC(C)=CCCC(C)=CC=O` [CITRAL, citral], the biodegradability classification ([1]; OECD 301B, The Terpene Consortium Robust Summary) is listed as “readily biodegradable”, the Readily biodegradable [1] is listed as “Yes” and the allergen classification [3] is listed as “strong allergens”.

For `CC(C)=CCCC(C)CCO` (stereo not shown) [CITRONELLOL, citronellol], the biodegradability classification ([1]; OECD 301F, The Terpene Consortium Robust Summary) is listed as “readily biodegradable” and the Readily biodegradable [1] is listed as “Yes”.

For `COc1ccc(C)cc1` [Cresyl methyl ether], the Bio-Degradable [1, 4] is listed as “Yes”.

For `CCCCCCC1CCC(=O)O1` (stereo not shown) [DECALACTONE GAMMA, decalactone gamma], the Readily biodegradable [1] is given as “Yes” and the LogP [2] is given as 2.72.

For `CCCc1ccc(O)c(OC)c1` [Dihydroeugenol], the Bio-Degradable [1, 4] is listed as “No”.

In the case of `CCCC(=O)OC(C)(C)Cc1ccccc1` [Dimethyl benzyl carbonyl butyrate], the Bio-Degradable [1, 5] is given as “No”.

For `CCCCCCCCCCCC=O` [Dodecanal], the Bio-Degradable [1, 4] is listed as “Yes”.

For `CCCC(=O)OCC` [ETHYL BUTYRATE, ethyl butyrate], the Readily biodegradable [1] is given as “Yes” and the LogP [2] is given as 1.73.

In the case of `CCCCCC(=O)OCC` [ETHYL CAPROATE, ethyl caproate], the Readily biodegradable [1] is listed as “Yes”.

In the case of `CCCCCCCC(=O)OCC` [ETHYL CAPRYLATE, ethyl caprylate], the Readily biodegradable [1] is given as “Yes”.

For `CCCCCCC(=O)OCC` [ETHYL HEPTANOTE, ethyl heptanoate], the Readily biodegradable [1] is given as “Yes”.

In the case of `CCOC(=O)CC` [ETHYL PROPIONATE, ethyl propionate], the Readily biodegradable [1] is given as “Yes” and the LogP [2] is given as 1.21.

In the case of `CCOC(=O)CC(C)=O` [Ethyl acetoaceteate], the Bio-Degradable [1, 4] is given as “Yes”.

In the case of `CCOC(=O)C12CCCC1C1CCC2C1` (stereo not shown) [Ethyl tricyclodecan-2-carboxylate], the Bio-Degradable [1, 5] is given as “No”.

For `O=C1CCCCCCCCCCCC(=O)OCCO1` [Ethylene brassylate], the Bio-Degradable [1, 5] is listed as “Yes” and the Bio-Degradable [1, 4] is listed as “Yes”.

In the case of `CC(=O)/C(C)=C/C1C(C)=CCCC1(C)C` (stereo not shown) [Gamma methyl ionone], the Bio-Degradable [1, 4] is given as “No”.

For `O=Cc1ccc2c(c1)OCO2` [HELIOTROPINE, heliotropine], the LogP [2] is given as 1.05.

For `CCCCCCOC(C)=O` [HEXYL ACETATE, hexyl acetate], the Readily biodegradable [1] is listed as “Yes”.

In the case of `CCCCCCC(C=O)=Cc1ccccc1` [Hexyl Cinnamic Aldehyde], the Bio-Degradable [1, 5] is given as “Yes”.

In the case of `CCCCCCOC(=O)c1ccccc1O` [Hexyl salicylate], the Bio-Degradable [1, 4] is given as “Yes”.

In the case of `CC(=O)OCCC(C)C` [ISOAMYL ACETATE, isoamyl acetate], the Readily biodegradable [1] is given as “Yes” and the LogP [2] is given as 2.25.

For `CC(C)[C@@H]1CC[C@@H](C)C[C@H]1O` [L-MENTHOL, L-menthol], the Readily biodegradable [1] is listed as “No”.

For `C=C(C)[C@H]1CC=C(C)CC1` [LIMONENE, limonene], the Readily biodegradable [1] is given as “No” and the LogP [2] is given as 4.57.

For `C=CC(C)(O)CCC=C(C)C` (stereo not shown) [LINALOOL, linalool], the Readily biodegradable [1] is listed as “No”, the Bio-Degradable [1, 5] is listed as “No” and the Bio-Degradable [1, 4] is listed as “No”.

For `C=CC(C)(CCC=C(C)C)OC(C)=O` (stereo not shown) [Linalyl acetate], the Bio-Degradable [1, 4] is listed as “No”.

For `COC(=O)c1ccccc1N` [METHYL ANTHRANILATE, methyl anthranilate], the Readily biodegradable [1] is listed as “Med”.

In the case of `COC(=O)c1ccccc1O` [METHYL SALICYLATE, methyl salicylate], the Readily biodegradable [1] is listed as “Yes”.

In the case of `CCCCCC1C(=O)CCC1CC(=O)OC` (stereo not shown) [Methyldihydrojasmonate], the Bio-Degradable [1, 4] is listed as “Yes”.

For `CCCCC1CCC(=O)O1` (stereo not shown) [OCTALACTONE, GAMMA, octalactone gamma], the Readily biodegradable [1] is listed as “Yes”.

In the case of `CC(=O)OCCc1ccccc1` [PHENYLETHYL ACETATE, 2-phenylethyl acetate], the Readily biodegradable [1] is listed as “Yes” and the LogP [2] is listed as 2.30.

For `OCCc1ccccc1` [PHENYLETHYL ALCOHOL, 2-phenylethylalcohol], the Readily biodegradable [1] is listed as “Yes” and the Bio-Degradable [1, 4] is listed as “Yes”.

In the case of `CC(C=O)Cc1ccc(C(C)(C)C)cc1` (stereo not drawn) [Para tert-butyl-alpha Methyl hydrocinnamic Aldehyde], the Bio-Degradable [1, 5] is given as “No” and the allergen classification [3] is given as “strong allergens”.

For `CC1=CCC(C(C)(C)O)CC1` (stereo not drawn) [TERPINEOL, ALPHA, alpha-terpineol], the Readily biodegradable [1] is given as “No” and the LogP [2] is given as 2.98.

For `CCC/C=C/C=O` [TRANS-2-HEXENAL, trans-2-hexenal], the Readily biodegradable [1] is listed as “Yes”.

For `CCCCCC1COCCC1OC(C)=O` (stereo not shown) [Tetrahydro-3-penthyl-2H-pyran-4-yl acetate], the Bio-Degradable [1, 5] is listed as “Yes”.

For `C=CCCCCCCCCC=O` [Undecelenic aldehyde], the Bio-Degradable [1, 4] is listed as “Yes”.

For `COc1cc(C=O)ccc1O` [VANILLIN, vanillin], the Readily biodegradable [1] is given as “Yes” and the Bio-Degradable [1, 4] is given as “Yes”.

In the case of `Cc1occc(=O)c1O` [VELTOL ™, 3-hydroxy-2-methyl-4-pyrone], the Readily biodegradable [1] is listed as “Yes”.

In the case of `CC(C)=CCCC(C)=CCCC(C)=CCO` [farnesol], the allergen classification [3] is listed as “strong allergens”.

In the case of `CC=Cc1ccc(O)c(OC)c1` [isoeugenol], the allergen classification [3] is listed as “strong allergens”.

In the case of `CCCCCOC(C)=O` [n-AMYL ACETATE, n-amyl acetate], the Readily biodegradable [1] is given as “Yes” and the LogP [2] is given as 2.30.

In the case of `CCCCCOC(=O)CC` [n-AMYL PROPIONATE, n-amyl propionate], the Readily biodegradable [1] is listed as “Yes” and the LogP [2] is listed as 2.66.
